Source: publication PMC9648375, “Identification of the first-in-class dual inhibitors of human DNA topoisomerase IIα and indoleamine-2,3-dioxygenase 1 (IDO 1) with strong anticancer properties” (Journal of Enzyme Inhibition and Medicinal Chemistry, 2022)
In brackets after ≈: the same amount, converted by molar mass.

Key:
[1] = target: T1, indoleamine-2,3-dioxygenase 1 (IDO 1) (Homo sapiens, UniProt P14902); assay: Universal IDO1/IDO2/TDO Inhibitor Screening Assay Kit; assay type: biochemical; details: fixed dose of 50 µg/ml; read-out: IDO 1 inhibition (%) ± SD
T1 construct: purchased BPS Bioscience, Inc. (San Diego, CA, USA)
T1 sequence (P14902 whole entry): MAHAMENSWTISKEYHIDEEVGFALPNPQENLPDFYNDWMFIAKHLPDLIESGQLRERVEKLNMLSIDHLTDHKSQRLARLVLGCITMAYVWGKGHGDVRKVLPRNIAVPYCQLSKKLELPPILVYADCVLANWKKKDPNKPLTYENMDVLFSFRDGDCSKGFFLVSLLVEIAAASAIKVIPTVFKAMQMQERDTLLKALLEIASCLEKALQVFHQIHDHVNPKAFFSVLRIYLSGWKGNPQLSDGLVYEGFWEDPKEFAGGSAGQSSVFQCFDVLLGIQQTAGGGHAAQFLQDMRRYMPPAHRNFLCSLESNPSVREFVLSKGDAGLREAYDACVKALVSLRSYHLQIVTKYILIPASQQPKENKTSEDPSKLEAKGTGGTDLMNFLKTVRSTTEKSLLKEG

[2] = target: T2, human DNA topoisomerase IIα (Homo sapiens, UniProt P11388); assay: Human topoisomerase IIα relaxation assay; assay type: biochemical; details: agarose gel, densitometry; read-out: IC50 ± SD, relaxation activity of human DNA topoisomerase IIα
T2 construct: purchased Inspiralis Ltd, Norwich, UK
T2 sequence (P11388 whole entry): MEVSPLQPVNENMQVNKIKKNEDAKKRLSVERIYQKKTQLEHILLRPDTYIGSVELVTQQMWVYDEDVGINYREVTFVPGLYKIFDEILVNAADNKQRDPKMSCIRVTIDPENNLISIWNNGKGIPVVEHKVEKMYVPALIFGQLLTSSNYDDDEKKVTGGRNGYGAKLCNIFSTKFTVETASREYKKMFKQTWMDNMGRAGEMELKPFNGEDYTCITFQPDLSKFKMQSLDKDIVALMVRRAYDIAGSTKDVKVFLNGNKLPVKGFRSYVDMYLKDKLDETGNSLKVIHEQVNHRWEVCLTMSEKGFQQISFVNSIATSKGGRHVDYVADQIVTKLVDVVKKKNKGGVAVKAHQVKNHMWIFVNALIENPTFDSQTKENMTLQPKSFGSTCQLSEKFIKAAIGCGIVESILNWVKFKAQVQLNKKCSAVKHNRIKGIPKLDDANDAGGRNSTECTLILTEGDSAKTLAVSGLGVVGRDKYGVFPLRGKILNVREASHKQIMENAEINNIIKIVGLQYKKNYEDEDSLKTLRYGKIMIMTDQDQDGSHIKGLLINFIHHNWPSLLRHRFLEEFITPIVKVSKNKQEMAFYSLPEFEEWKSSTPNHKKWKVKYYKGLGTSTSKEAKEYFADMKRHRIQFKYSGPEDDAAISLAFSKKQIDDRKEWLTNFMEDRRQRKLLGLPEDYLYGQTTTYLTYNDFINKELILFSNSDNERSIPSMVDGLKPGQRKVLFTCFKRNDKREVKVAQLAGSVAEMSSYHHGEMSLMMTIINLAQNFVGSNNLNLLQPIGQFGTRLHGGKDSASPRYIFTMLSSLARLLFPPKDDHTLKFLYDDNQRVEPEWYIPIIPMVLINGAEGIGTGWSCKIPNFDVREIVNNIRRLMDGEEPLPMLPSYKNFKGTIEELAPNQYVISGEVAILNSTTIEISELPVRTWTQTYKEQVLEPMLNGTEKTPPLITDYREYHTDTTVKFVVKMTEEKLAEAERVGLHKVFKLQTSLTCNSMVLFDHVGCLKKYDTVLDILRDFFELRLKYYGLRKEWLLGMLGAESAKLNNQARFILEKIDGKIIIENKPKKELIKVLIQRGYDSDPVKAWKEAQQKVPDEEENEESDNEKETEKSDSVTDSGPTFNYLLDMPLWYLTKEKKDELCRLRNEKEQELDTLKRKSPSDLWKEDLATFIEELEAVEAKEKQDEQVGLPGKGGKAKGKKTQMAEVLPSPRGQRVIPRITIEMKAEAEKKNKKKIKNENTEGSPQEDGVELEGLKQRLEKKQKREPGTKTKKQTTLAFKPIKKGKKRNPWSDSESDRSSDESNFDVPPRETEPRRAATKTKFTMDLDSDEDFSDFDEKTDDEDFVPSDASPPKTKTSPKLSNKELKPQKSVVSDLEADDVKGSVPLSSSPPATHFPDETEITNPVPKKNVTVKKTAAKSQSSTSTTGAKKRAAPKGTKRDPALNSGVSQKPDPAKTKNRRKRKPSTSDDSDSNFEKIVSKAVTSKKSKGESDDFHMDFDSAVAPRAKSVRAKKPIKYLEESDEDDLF
Description: As relaxation of supercoiled DNA (scDNA) is one of numerous functions of topoisomerase IIα, so the appearance/disappearance of relaxed DNA bands during agarose gel electrophoresis can be used to identify compounds that inhibit the enzyme.
Briefly, the increased concentrations of the compounds were mixed with the reaction mixture, incubated according to the protocol and, after reaction termination, the samples were analysed by electrophoresis using 1% agarose gel containing 0.5 mg/mL of ethidium bromide in Tris-Acetate-EDTA (TAE) buffer. Visualisation of the bands was performed using an enhanced chemiluminescence system (Syngene G:BOX Chemi XT4, Cambridge, UK). For the quantitative determination of topoisomerase II inhibition, images were densitometrically scanned.
The inhibition of topoisomerase II was calculate from the equation: % Inhibition=Intensity of compound−treated DNA/Intensity of vehicle−treated control DNA×100

A375 (melanoma cells) = assay: BrdU assay; assay type: cell-based, human; details: for IC50: Homo sapiens, A-375, A375, BrdU, 24 h, read-out: IC50 ± SD, antiproliferative activity
Description: (§1) Since the inhibition of human DNA topoisomerase II should result in decreased proliferation of cancer cells, compounds 1-3 were tested using BrdU assay against a panel of cancer cell lines, including MCF-7 (estrogen-dependent human breast cancer cells), MDA-MB-231 (estrogen-independent human breast cancer cells), SCC-25 (squamous cell carcinoma of the tongue), FaDu (squamous cell carcinoma of the pharynx), A549 (human lung carcinoma), AGS (human gastric adenocarcinoma), LS-180, HT-29 (colon cancer cell lines), T98G (glioblastoma cells), and A375 (melanoma cells). Human normal skin fibroblasts (CRL-2072) were also used as a reference cell line. The BrdU assay allows quantification of cell proliferation since it measures incorporation of thymidine analogue (BrdU) during DNA replication. […] However, although the antiproliferative effect caused by 3 was mostly weaker (except for A549 and A375) than observed for 1, but the former compound was also characterised by lower toxicity against human normal cells. It results in selectivity index approaching 125 and 57, when it comes to lung cancer (A549) and melanoma cells (A375), respectively.
(§2) Cytotoxicity of the synthesised compounds were examined against a panel of the cancer cell lines, MCF-7 (estrogen-dependent human breast cancer cells), MDA-MB-231 (oestrogen-independent human breast cancer cells), SCC- 25 (squamous cell carcinoma of the tongue), FaDu (squamous cell carcinoma of the pharynx), A- 549 (human lung carcinoma), AGS (human gastric adenocarcinoma), LS-180, HT-29 (colon cancer cell lines), T98G (glioblastoma cells), A375 (melanoma cells). Human embryonic kidney (HEK-293) cells and human normal skin fibroblasts (CRL-2072) were used as reference cell lines. The investigated cell lines were obtained from American Type Culture Collection (ATCC; Manassas, VA, USA). A375, MCF-7, MDA-MB-231, T98G cells were cultured in Dulbecco’s Modified Eagle’s Medium (DMEM) (Sigma Aldrich, St. Louis, MO, USA) supplemented with 10% heat inactivated foetal bovine serum (FBS), penicillin (100 U/mL), and streptomycin (100 μg/mL). SCC-25 cells were cultured in 1:1 mixture of Dulbecco’s modified Eagle’s medium and Ham’s F12 Medium (Sigma Aldrich, St. Louis, MO, USA) supplemented with 400 ng/ml hydrocortisone, 10% FBS, penicillin (100 U/mL), and streptomycin (100 μg/mL). A549 and AGS cells were maintained in F-12K Medium (Sigma Aldrich, St. Louis, MO, USA). LS-180 and FaDu cells were cultured in Eagle’s Minimum Essential Medium. HT-29 cells were maintained in McCoy’s 5 A Medium (Sigma Aldrich, St. Louis, MO, USA) supplemented with 10%FBS, penicillin (100 U/mL), and streptomycin (100 μg/mL). All the cells were maintained at 37 °C in a humidified atmosphere of 5% CO2.
(§3) The BrdU assay was performed to determine the effect of synthesised compounds on the proliferation of cancer cells. BrdU assay indicates the rate of incorporation of 5′-bromo-2′-deoxy-uridine (BrdU) during DNA biosynthesis. In brief, cells were plated in 96-well plates (NUNC, Roskilde, Denmark) at the density of 3 × 10^4 cells/mL. […] Cell proliferation was examined after 24 h and 48 h of incubation according to the manufacturer’s protocol (Cell Proliferation ELISA BrdU, Roche Diagnostics GmbH, Penzberg,)Germany).

[3] = system: Human normal skin fibroblasts (CRL-2072); assay: BrdU assay; assay type: cell-based; details: Skin fibroblast, 24 h, read-out: IC50 ± SD, antiproliferative activity
Description: as §1, §2, §3

[4] = system: MCF-7 (estrogen-dependent human breast cancer cells); assay: BrdU assay; assay type: cell-based; details: MCF7, MCF-7, BrdU, 24 h, read-out: IC50 ± SD, antiproliferative activity
Description: as §1, §2, §3

[5] = system: HT-29 (colon cancer cell line); assay: BrdU assay; assay type: cell-based; details: Homo sapiens; HT-29, BrdU, 24 h; read-out: IC50 ± SD, antiproliferative activity
Description: as §1, §2, §3

[6] = system: LS180 (colon cancer cell line); assay: BrdU assay; assay type: cell-based; details: Homo sapiens, 24 h, read-out: IC50 ± SD, antiproliferative activity
Description: as §1, §2, §3

[7] = system: AGS (human gastric adenocarcinoma); assay: BrdU assay; assay type: cell-based; details: 24 h, read-out: IC50 ± SD, antiproliferative activity
Description: as §1, §2, §3

[8] = system: FaDu (squamous cell carcinoma of the pharynx); assay: BrdU assay; assay type: cell-based; details: Homo sapiens, 24 h, read-out: IC50 ± SD, antiproliferative activity
Description: as §1, §2, §3

[9] = system: A549 (human lung carcinoma); assay: BrdU assay; assay type: cell-based; details: for IC50: Homo sapiens, A549, BrdU, 24 h, read-out: IC50 ± SD, antiproliferative activity
Description: as §1, §2, §3

[10] = system: MDA-MB-231 (estrogen-independent human breast cancer cells); assay: BrdU assay; assay type: cell-based; details: MDA-MB-231, BrdU, 24 h, read-out: IC50 ± SD, antiproliferative activity
Description: as §1, §2, §3

[11] = system: T98G (glioblastoma cells); assay: BrdU assay; assay type: cell-based; details: Homo sapiens, 24 h, read-out: IC50 ± SD, antiproliferative activity
Description: as §1, §2, §3

[12] = system: SCC-25 (squamous cell carcinoma of the tongue); assay: BrdU assay; assay type: cell-based; details: Homo sapiens; SCC-25, BrdU, 24 h; read-out: IC50 ± SD, antiproliferative activity
Description: as §1, §2, §3

inhibition at 50 µg/mL [1] [%] | IC50 [2] [µM] | melting point [°C] | IC50 (A375 (melanoma cells)) [µg/mL] | IC50 [4] [µg/mL] | IC50 [5] [µg/mL] | IC50 [6] [µg/mL] | IC50 [7] [µg/mL] | IC50 [8] [µg/mL] | IC50 [9] [µg/mL] | IC50 [10] [µg/mL] | IC50 [11] [µg/mL] | IC50 [12] [µg/mL] | Compound | IC50 [3] [µg/mL] | selectivity index, A375 vs. human normal skin fibroblasts (A375 (melanoma cells); BrdU assay, melanoma cells (A375)) | selectivity index, A549 vs. human normal skin fibroblasts ([9]; BrdU assay, lung cancer (A549))
91.4 ± 1.82 | 71 ± 4.81 | 140 to 142 | 0.96 ± 0.03 (≈ 2.29 µM) | 1.19 ± 0.04 (≈ 2.84 µM) | 0.44 ± 0.03 (≈ 1.05 µM) | 4.68 ± 0.17 (≈ 11.2 µM) | 0.51 ± 0.02 (≈ 1.22 µM) | 1.04 ± 0.04 (≈ 2.48 µM) | 0.23 ± 0.01 (≈ 0.548 µM) | 26.3 ± 0.99 (≈ 62.7 µM) | 0.72 ± 0.02 (≈ 1.72 µM) | 1.1 ± 0.02 (≈ 2.62 µM) | CC(C)c1cccc(C(C)C)c1NC(=S)NNC(=O)Cc1cccc2ccccc12 [Compound 1, 4-(2,6-Diisopropylphenyl)-1-[(naphth-1-yl)acetyl]thiosemicarbazide] | 22.4 ± 0.94 (≈ 53.3 µM) | – | –
41.4 ± 2.47 | 43.1 ± 2.27 | 178 to 180 | 0.85 ± 0.04 (≈ 1.93 µM) | 33.2 ± 1.05 (≈ 75.4 µM) | 9.47 ± 0.51 (≈ 21.5 µM) | 10.4 ± 0.77 (≈ 23.6 µM) | 62.3 ± 3.04 (≈ 142 µM) | 7.11 ± 0.34 (≈ 16.2 µM) | 0.83 ± 0.03 (≈ 1.89 µM) | > 100 | 6.19 ± 1.83 (≈ 14.1 µM) | 1.06 ± 0.04 (≈ 2.41 µM) | O=C(Cc1cccc2ccccc12)NNC(=S)Nc1ccc(N=Nc2ccccc2)cc1 [Compound 2, 4-(4-Phenylazophenyl)-1-[(naphth-1-yl)acetyl]thiosemicarbazide] | 24.2 ± 1.4 (≈ 55 µM) | – | –
21.4 ± 1.05 | 76.8 ± 4.85 | 168 to 170 | 0.56 ± 0.03 (≈ 1.33 µM) | 32.5 ± 1.98 (≈ 77.4 µM) | 13.1 ± 0.81 (≈ 31.3 µM) | 10.6 ± 0.24 (≈ 25.1 µM) | 43.9 ± 1.94 (≈ 104 µM) | 9.04 ± 0.39 (≈ 21.5 µM) | 0.25 ± 0.01 (≈ 0.595 µM) | > 100 | 6.28 ± 0.37 (≈ 14.9 µM) | 4.89 ± 0.22 (≈ 11.6 µM) | O=C(NNC(=S)Nc1ccc(N=Nc2ccccc2)cc1)c1ccccc1[N+](=O)[O-] [Compound 3, 4-(4-Phenylazophenyl)-1-(2-nitrobenzoyl)thiosemicarbazide] | 32.1 ± 1.75 (≈ 76.4 µM) | ~57 | ~125
– | – | – | 9.18 ± 0.15 (≈ 15.6 µM) | 54.9 ± 1.82 (≈ 93.3 µM) | 19.9 ± 0.25 (≈ 33.9 µM) | > 100 | 46 ± 2.61 (≈ 78.1 µM) | 12.8 ± 0.27 (≈ 21.8 µM) | 2.6 ± 0.11 (≈ 4.42 µM) | > 100 | 29.5 ± 0.93 (≈ 50.1 µM) | 21.2 ± 0.74 (≈ 36 µM) | COc1cc([C@@H]2c3cc4c(cc3[C@@H](O[C@@H]3O[C@@H]5CO[C@@H](C)O[C@H]5[C@H](O)[C@H]3O)[C@H]3COC(=O)[C@H]23)OCO4)cc(OC)c1O [Etoposide, etoposide, reference compound] | 55.7 ± 3.01 (≈ 94.6 µM) | – | –
